Source: the supplement of paper PMC10307832

What was measured:
Assay in all cases: relative viability (nuclei count vs DMSO), 5 days (fraction); higher = more cells survive
[1] = compound: Nc1ccn([C@@H]2O[C@H](CO)[C@@H](O)C2(F)F)c(=O)n1 [Gemcitabine] + CC(=O)c1c(C)c2cnc(Nc3ccc(N4CCNCC4)cn3)nc2n(C2CCCC2)c1=O [Palbociclib] (partner 0.5 µM)
Method in brief: (§1)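 Nuclei were stained with Hoechst during a one-step fixation (final 0.05% Triton X-100, 1% formaldehyde, 1 ug/ml Hoechst) carried out 5 days after dosing, then counted on 4× images. The cells, lung cancer lines in 1536-well plates, had been dosed by pin tool the day after seeding with one drug alone or a fixed anchor-drug dose plus five library-drug doses (not always all listed) in √10 steps. Relative viability is the nuclei count in treated wells divided by that in vehicle wells, and each value is the median of duplicate plates.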

Gemcitabine + OSI-027 = compound: Nc1ccn([C@@H]2O[C@H](CO)[C@@H](O)C2(F)F)c(=O)n1 [Gemcitabine] + COc1cccc2cc(-c3nc([C@H]4CC[C@H](C(=O)O)CC4)n4ncnc(N)c34)[nH]c12 [OSI-027] (partner 0.5 µM)
Method in brief: as §1

Gemcitabine + Foretinib = compound: Nc1ccn([C@@H]2O[C@H](CO)[C@@H](O)C2(F)F)c(=O)n1 [Gemcitabine] + COc1cc2c(Oc3ccc(NC(=O)C4(C(=O)Nc5ccc(F)cc5)CC4)cc3F)ccnc2cc1OCCCN1CCOCC1 [Foretinib] (partner 0.25 µM)
Method in brief: as §1

Gemcitabine = compound: Nc1ccn([C@@H]2O[C@H](CO)[C@@H](O)C2(F)F)c(=O)n1 [Gemcitabine]
Method in brief: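 Lung cancer cell lines in 1536-well plates were exposed by pinning to five library-drug doses (not always all listed) √10 apart, following an overnight hold at 37 °C. MetaXpress counted Hoechst-stained nuclei from 4× images taken after 5 days without medium change. Viability is the median ratio of treated-well to vehicle-well nuclei across plates. Plates required control CV below 25% and at least one doubling.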

Row | Cell Line | relative viability ([1]; first compound 0.001 µM) | relative viability ([1]; first compound 0.003162 µM) | relative viability ([1]; first compound 0.01 µM) | relative viability ([1]; first compound 0.03162 µM) | relative viability ([1]; first compound 0.1 µM) | relative viability (Gemcitabine + OSI-027; first compound 0.001 µM) | relative viability (Gemcitabine + OSI-027; first compound 0.003162 µM) | relative viability (Gemcitabine + OSI-027; first compound 0.01 µM) | relative viability (Gemcitabine + OSI-027; first compound 0.03162 µM) | relative viability (Gemcitabine + OSI-027; first compound 0.1 µM) | relative viability (Gemcitabine + Foretinib; first compound 0.001 µM) | relative viability (Gemcitabine + Foretinib; first compound 0.003162 µM) | relative viability (Gemcitabine + Foretinib; first compound 0.01 µM) | relative viability (Gemcitabine + Foretinib; first compound 0.03162 µM) | relative viability (Gemcitabine + Foretinib; first compound 0.1 µM) | relative viability (Gemcitabine; 0.001 µM) | relative viability (Gemcitabine; 0.003162 µM) | relative viability (Gemcitabine; 0.01 µM) | relative viability (Gemcitabine; 0.03162 µM) | relative viability (Gemcitabine; 0.1 µM)
1 | HCC-78 | 0.495 | 0.446 | 0.388 | 0.302 | 0.294 | 0.325 | 0.312 | 0.263 | 0.211 | 0.229 | 0.502 | 0.44 | 0.416 | 0.267 | 0.241 | 0.849 | 0.595 | 0.436 | 0.255 | 0.237
2 | HCC-366 | 0.402 | 0.383 | 0.205 | 0.0402 | 0.026 | 0.899 | 1.23 | 0.478 | 0.0351 | 0.0249 | 0.965 | 0.989 | 0.417 | 0.0476 | 0.0377 | 0.992 | 0.939 | 0.535 | 0.0641 | 0.0314
3 | HCC-827 | 0.497 | 0.304 | 0.309 | 0.197 | 0.164 | 0.802 | 0.477 | 0.444 | 0.159 | 0.159 | 1 | 0.865 | 0.565 | 0.332 | 0.177 | 1.05 | 0.928 | 0.783 | 0.51 | 0.252
4 | HOP-62 | 0.358 | 0.339 | 0.184 | 0.0959 | 0.0958 | 0.681 | 0.557 | 0.141 | 0.127 | 0.0935 | 1.01 | 0.965 | 0.306 | 0.103 | 0.0927 | 0.923 | 0.855 | 0.176 | 0.103 | 0.0838
5 | IA-LM | – | – | – | – | – | – | – | – | – | – | 1.07 | 0.916 | 1.11 | 0.0445 | 0.0363 | 0.963 | 0.88 | 0.74 | 0.108 | 0.0519
6 | LC-2-ad | 0.509 | 0.555 | 0.424 | 0.496 | 0.317 | 0.817 | 0.578 | 0.279 | 0.195 | 0.188 | 0.943 | 0.829 | 0.712 | 0.206 | 0.158 | 1.03 | 0.763 | 0.762 | 0.316 | 0.159
7 | LCLC-97TM1 | 0.17 | 0.135 | 0.134 | 0.0816 | 0.0933 | 0.468 | 0.524 | 0.138 | 0.121 | 0.116 | 0.886 | 0.832 | 0.597 | 0.136 | 0.118 | 0.909 | 0.455 | 0.139 | 0.0859 | 0.0792
8 | LCLC-103H | 0.491 | 0.504 | 0.497 | 0.42 | 0.406 | 0.442 | 0.449 | 0.418 | 0.288 | 0.296 | 0.78 | 0.853 | 0.663 | 0.348 | 0.233 | 0.933 | 1.07 | 1 | 0.769 | 0.376
9 | LK-2 | 0.798 | 0.696 | 0.403 | 0.119 | 0.126 | 0.217 | 0.18 | 0.167 | 0.163 | 0.155 | 1.16 | 1.13 | 0.808 | 0.276 | 0.18 | 0.997 | 0.915 | 0.708 | 0.255 | 0.187
10 | LOU-NH91 | 0.524 | 0.522 | 0.478 | 0.474 | 0.412 | 0.709 | 0.616 | 0.45 | 0.252 | 0.215 | 0.965 | 0.69 | 0.591 | 0.332 | 0.209 | 0.982 | 0.788 | 0.585 | 0.338 | 0.301
11 | LU99A | 0.412 | 0.43 | 0.409 | 0.404 | 0.421 | 0.275 | 0.348 | 0.307 | 0.304 | 0.286 | 0.856 | 0.791 | 0.858 | 0.819 | 0.812 | 0.864 | 1.08 | 0.932 | 1.01 | 0.918
12 | LXF-289 | 0.606 | 0.604 | 0.428 | 0.127 | 0.14 | 0.93 | 0.77 | 0.236 | 0.0894 | 0.105 | 0.974 | 0.966 | 0.803 | 0.106 | 0.107 | 1.01 | 0.977 | 0.826 | 0.206 | 0.123
13 | NCI-H596 | – | – | – | – | – | 0.659 | 0.604 | 0.392 | 0.232 | 0.193 | 0.635 | 0.706 | 0.287 | 0.196 | 0.309 | 1.32 | 0.929 | 0.564 | 0.31 | 0.283
14 | NCI-H1299 | – | – | – | – | – | – | – | – | – | – | 1.09 | 1.08 | 1.09 | 1.07 | 1.08 | 0.998 | 1.05 | 1 | 1.02 | 1.03
15 | NCI-H1563 | – | – | – | – | – | 0.761 | 0.726 | 0.631 | 0.5 | 0.545 | 0.948 | 0.916 | 0.706 | 0.566 | 0.526 | 0.998 | 0.983 | 0.866 | 0.538 | 0.49
16 | NCI-H1648 | 0.267 | 0.273 | 0.262 | 0.226 | 0.327 | 0.245 | – | 0.245 | 0.228 | 0.276 | – | – | – | – | – | 0.846 | 0.771 | 0.999 | 0.413 | 0.283
17 | NCI-H1703 | – | – | – | – | – | – | – | – | – | – | 0.277 | 0.238 | 0.185 | 0.175 | 0.167 | 0.699 | 0.264 | 0.138 | 0.126 | 0.115
18 | NCI-H1792 | 0.699 | 0.596 | 0.395 | 0.254 | 0.194 | 0.639 | 0.486 | 0.285 | 0.227 | 0.154 | – | – | – | – | – | 1.06 | 0.43 | 0.165 | 0.127 | 0.0999
